In paper PMC12670405, “Second-Generation AURKA-Targeting PROTACs: Structural Optimization toward in Vivo Degradation in Neuroblastoma” (Journal of Medicinal Chemistry, 2025):

Tests used:
Assay in all cases: KINOMEscan scanMAX
Type in all cases: binding
MEK2 = biological target: T1, MEK2 (Homo sapiens, UniProt P36507); details: read-out: Percent Control
T1 construct: purchased Eurofins Discovery (DiscoverX KINOMEscan scanMAX)
Method: (§1) The kinome-wide binding assay was performed by Eurofins Discovery using the scanMAX screening platform. More information can be found on the Eurofins Discovery Web site.

BMX = biological target: T2, BMX (Homo sapiens, UniProt P51813); details: read-out: Percent Control
T2 construct: purchased Eurofins Discovery (DiscoverX KINOMEscan scanMAX)
Method: as §1

[1] = biological target: T3, RSK1(Kin.Dom.1-N-terminal) (Homo sapiens, UniProt Q15418); details: read-out: Percent Control
T3 construct: RSK1(Kin.Dom.1-N-terminal); purchased Eurofins Discovery (DiscoverX KINOMEscan scanMAX)
Method: as §1

NEK3 = biological target: T4, NEK3 (Homo sapiens, UniProt P51956); details: read-out: Percent Control
T4 construct: purchased Eurofins Discovery (DiscoverX KINOMEscan scanMAX)
Method: as §1

LATS1 = biological target: T5, LATS1 (Homo sapiens, UniProt O95835); details: read-out: Percent Control
T5 construct: purchased Eurofins Discovery (DiscoverX KINOMEscan scanMAX)
Method: as §1

ROCK2 = biological target: T6, ROCK2 (Homo sapiens, UniProt O75116); details: read-out: Percent Control
T6 construct: purchased Eurofins Discovery (DiscoverX KINOMEscan scanMAX)
Method: as §1

IKK-epsilon = biological target: T7, IKK-epsilon (Homo sapiens, UniProt Q14164); details: read-out: Percent Control
T7 construct: purchased Eurofins Discovery (DiscoverX KINOMEscan scanMAX)
Method: as §1

YANK1 = biological target: T8, YANK1 (Homo sapiens, UniProt Q8WU08); details: read-out: Percent Control
T8 construct: purchased Eurofins Discovery (DiscoverX KINOMEscan scanMAX)
Method: as §1

EGFR(G719C) = biological target: T9, EGFR(G719C) (Homo sapiens, UniProt P00533, G719C); details: read-out: Percent Control
T9 construct: purchased Eurofins Discovery (DiscoverX KINOMEscan scanMAX)
Method: as §1

PRKX = biological target: T10, PRKX (Homo sapiens, UniProt P51817); details: read-out: Percent Control
T10 construct: purchased Eurofins Discovery (DiscoverX KINOMEscan scanMAX)
Method: as §1

FGFR3(G697C) = biological target: T11, FGFR3(G697C) (Homo sapiens, UniProt P22607, G697C); details: read-out: Percent Control
T11 construct: purchased Eurofins Discovery (DiscoverX KINOMEscan scanMAX)
Method: as §1

NEK10 = biological target: T12, NEK10 (Homo sapiens, UniProt Q6ZWH5); details: read-out: Percent Control
T12 construct: purchased Eurofins Discovery (DiscoverX KINOMEscan scanMAX)
Method: as §1

FLT3(ITD,D835V) = tested on: FLT3(ITD,D835V)
Method: as §1

VPS34 = biological target: T13, VPS34 (Homo sapiens, UniProt Q8NEB9); details: read-out: Percent Control
T13 construct: purchased Eurofins Discovery (DiscoverX KINOMEscan scanMAX)
Method: as §1

MAP4K2 = biological target: T14, MAP4K2 (Homo sapiens, UniProt Q12851); details: read-out: Percent Control
T14 construct: purchased Eurofins Discovery (DiscoverX KINOMEscan scanMAX)
Method: as §1

NEK7 = biological target: T15, NEK7 (Homo sapiens, UniProt Q8TDX7); details: read-out: Percent Control
T15 construct: purchased Eurofins Discovery (DiscoverX KINOMEscan scanMAX)
Method: as §1

AMPK-alpha2 = biological target: T16, AMPK-alpha2 (Homo sapiens, UniProt P54646); details: read-out: Percent Control
T16 construct: purchased Eurofins Discovery (DiscoverX KINOMEscan scanMAX)
Method: as §1

CSNK2A1 = biological target: T17, CSNK2A1 (Homo sapiens, UniProt P68400); details: read-out: Percent Control
T17 construct: purchased Eurofins Discovery (DiscoverX KINOMEscan scanMAX)
Method: as §1

PRKCQ = biological target: T18, PRKCQ (Homo sapiens, UniProt Q04759); details: read-out: Percent Control
T18 construct: purchased Eurofins Discovery (DiscoverX KINOMEscan scanMAX)
Method: as §1

NEK6 = biological target: T19, NEK6 (Homo sapiens, UniProt Q9HC98); details: read-out: Percent Control
T19 construct: purchased Eurofins Discovery (DiscoverX KINOMEscan scanMAX)
Method: as §1

[2] = biological target: T20, RSK1(Kin.Dom.2-C-terminal) (Homo sapiens, UniProt Q15418); details: read-out: Percent Control
T20 construct: RSK1(Kin.Dom.2-C-terminal); purchased Eurofins Discovery (DiscoverX KINOMEscan scanMAX)
Method: as §1

PRKCH = biological target: T21, PRKCH (Homo sapiens, UniProt P24723); details: read-out: Percent Control
T21 construct: purchased Eurofins Discovery (DiscoverX KINOMEscan scanMAX)
Method: as §1

MLCK = biological target: T22, MLCK (Homo sapiens, UniProt Q32MK0); details: read-out: Percent Control
T22 construct: purchased Eurofins Discovery (DiscoverX KINOMEscan scanMAX)
Method: as §1

CSNK1G2 = biological target: T23, CSNK1G2 (Homo sapiens, UniProt P78368); details: read-out: Percent Control
T23 construct: purchased Eurofins Discovery (DiscoverX KINOMEscan scanMAX)
Method: as §1

PAK6 = biological target: T24, PAK6 (Homo sapiens, UniProt Q9NQU5); details: read-out: Percent Control
T24 construct: purchased Eurofins Discovery (DiscoverX KINOMEscan scanMAX)
Method: as §1

[3] = biological target: T25, RSK2(Kin.Dom.1-N-terminal) (Homo sapiens, UniProt P51812); details: read-out: Percent Control
T25 construct: RSK2(Kin.Dom.1-N-terminal); purchased Eurofins Discovery (DiscoverX KINOMEscan scanMAX)
Method: as §1

CLK4 = biological target: T26, CLK4 (Homo sapiens, UniProt Q9HAZ1); details: read-out: Percent Control
T26 construct: purchased Eurofins Discovery (DiscoverX KINOMEscan scanMAX)
Method: as §1

MAP4K4 = biological target: T27, MAP4K4 (Homo sapiens, UniProt O95819); details: read-out: Percent Control
T27 construct: purchased Eurofins Discovery (DiscoverX KINOMEscan scanMAX)
Method: as §1

ACVR1B = biological target: T28, ACVR1B (Homo sapiens, UniProt P36896); details: read-out: Percent Control
T28 construct: purchased Eurofins Discovery (DiscoverX KINOMEscan scanMAX)
Method: as §1

CSF1R = biological target: T29, CSF1R (Homo sapiens, UniProt P07333); details: read-out: Percent Control
T29 construct: purchased Eurofins Discovery (DiscoverX KINOMEscan scanMAX)
Method: as §1

CAMK1G = biological target: T30, CAMK1G (Homo sapiens, UniProt Q96NX5); details: read-out: Percent Control
T30 construct: purchased Eurofins Discovery (DiscoverX KINOMEscan scanMAX)
Method: as §1

PRKG1 = biological target: T31, PRKG1 (Homo sapiens, UniProt Q13976); details: read-out: Percent Control
T31 construct: purchased Eurofins Discovery (DiscoverX KINOMEscan scanMAX)
Method: as §1

MYLK = biological target: T32, MYLK (Homo sapiens, UniProt Q15746); details: read-out: Percent Control
T32 construct: purchased Eurofins Discovery (DiscoverX KINOMEscan scanMAX)
Method: as §1

T27 sequence (O95819 whole entry): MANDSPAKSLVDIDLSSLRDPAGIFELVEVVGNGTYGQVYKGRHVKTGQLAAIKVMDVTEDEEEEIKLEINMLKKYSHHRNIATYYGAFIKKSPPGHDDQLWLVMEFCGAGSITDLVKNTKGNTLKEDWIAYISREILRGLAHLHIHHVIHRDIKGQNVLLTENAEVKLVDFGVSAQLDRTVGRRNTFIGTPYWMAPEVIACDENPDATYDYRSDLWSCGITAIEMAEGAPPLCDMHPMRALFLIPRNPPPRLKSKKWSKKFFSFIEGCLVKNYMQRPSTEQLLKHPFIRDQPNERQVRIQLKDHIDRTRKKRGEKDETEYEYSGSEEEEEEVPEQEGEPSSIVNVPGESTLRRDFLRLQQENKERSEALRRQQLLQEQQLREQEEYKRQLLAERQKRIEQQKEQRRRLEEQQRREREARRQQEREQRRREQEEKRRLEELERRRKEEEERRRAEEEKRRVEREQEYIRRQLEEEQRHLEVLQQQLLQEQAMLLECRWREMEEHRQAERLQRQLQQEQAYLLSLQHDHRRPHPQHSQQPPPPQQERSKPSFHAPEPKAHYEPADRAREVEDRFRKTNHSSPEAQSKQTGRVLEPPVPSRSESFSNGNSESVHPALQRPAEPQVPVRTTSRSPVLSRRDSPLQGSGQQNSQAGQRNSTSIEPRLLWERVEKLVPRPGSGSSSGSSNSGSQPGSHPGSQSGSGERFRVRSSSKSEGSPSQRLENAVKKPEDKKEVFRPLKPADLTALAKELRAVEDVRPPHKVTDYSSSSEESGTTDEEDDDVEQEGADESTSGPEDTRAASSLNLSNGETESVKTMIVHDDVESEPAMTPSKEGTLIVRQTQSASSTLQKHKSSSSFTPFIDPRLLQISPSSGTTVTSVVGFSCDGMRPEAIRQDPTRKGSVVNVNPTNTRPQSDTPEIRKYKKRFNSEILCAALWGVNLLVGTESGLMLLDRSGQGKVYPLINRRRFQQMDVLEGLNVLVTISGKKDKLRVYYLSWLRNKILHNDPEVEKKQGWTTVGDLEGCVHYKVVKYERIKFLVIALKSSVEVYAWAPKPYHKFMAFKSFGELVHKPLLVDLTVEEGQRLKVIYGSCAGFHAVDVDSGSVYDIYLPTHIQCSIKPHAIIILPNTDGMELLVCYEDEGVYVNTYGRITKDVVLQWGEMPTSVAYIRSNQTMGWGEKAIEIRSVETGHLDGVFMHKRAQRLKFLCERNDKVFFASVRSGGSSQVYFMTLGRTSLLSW
T20 sequence (Q15418 392-735 limits assumed): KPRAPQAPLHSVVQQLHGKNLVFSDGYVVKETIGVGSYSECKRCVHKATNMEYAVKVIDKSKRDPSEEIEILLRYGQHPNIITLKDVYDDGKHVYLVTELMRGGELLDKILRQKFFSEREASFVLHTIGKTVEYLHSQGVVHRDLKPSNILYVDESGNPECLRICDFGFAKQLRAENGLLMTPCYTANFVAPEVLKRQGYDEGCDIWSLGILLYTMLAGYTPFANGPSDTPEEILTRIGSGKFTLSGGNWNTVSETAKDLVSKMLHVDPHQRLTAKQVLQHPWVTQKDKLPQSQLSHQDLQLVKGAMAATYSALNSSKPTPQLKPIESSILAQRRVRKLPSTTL
T17 sequence (P68400 whole entry): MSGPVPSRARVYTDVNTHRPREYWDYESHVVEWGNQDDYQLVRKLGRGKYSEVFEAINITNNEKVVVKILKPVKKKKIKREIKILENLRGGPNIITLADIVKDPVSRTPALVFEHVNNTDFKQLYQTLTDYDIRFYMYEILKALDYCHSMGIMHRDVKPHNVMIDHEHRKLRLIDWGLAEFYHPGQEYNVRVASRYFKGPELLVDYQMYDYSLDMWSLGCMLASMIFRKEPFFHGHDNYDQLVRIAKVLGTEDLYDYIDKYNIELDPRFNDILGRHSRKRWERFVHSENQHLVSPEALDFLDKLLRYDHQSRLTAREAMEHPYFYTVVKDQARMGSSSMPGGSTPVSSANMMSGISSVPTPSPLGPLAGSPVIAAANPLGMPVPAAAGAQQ
T25 sequence (P51812 1-397 limits assumed): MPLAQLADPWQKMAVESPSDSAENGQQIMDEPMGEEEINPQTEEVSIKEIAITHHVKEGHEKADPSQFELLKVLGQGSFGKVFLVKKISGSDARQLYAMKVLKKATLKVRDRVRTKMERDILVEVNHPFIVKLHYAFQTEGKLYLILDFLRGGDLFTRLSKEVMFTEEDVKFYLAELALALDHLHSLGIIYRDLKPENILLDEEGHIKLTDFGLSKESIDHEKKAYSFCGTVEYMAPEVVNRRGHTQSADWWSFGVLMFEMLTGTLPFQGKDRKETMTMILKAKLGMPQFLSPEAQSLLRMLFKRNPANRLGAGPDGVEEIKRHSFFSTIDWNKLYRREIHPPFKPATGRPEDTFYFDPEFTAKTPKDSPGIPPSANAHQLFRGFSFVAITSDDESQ
T32 sequence (Q15746 whole entry): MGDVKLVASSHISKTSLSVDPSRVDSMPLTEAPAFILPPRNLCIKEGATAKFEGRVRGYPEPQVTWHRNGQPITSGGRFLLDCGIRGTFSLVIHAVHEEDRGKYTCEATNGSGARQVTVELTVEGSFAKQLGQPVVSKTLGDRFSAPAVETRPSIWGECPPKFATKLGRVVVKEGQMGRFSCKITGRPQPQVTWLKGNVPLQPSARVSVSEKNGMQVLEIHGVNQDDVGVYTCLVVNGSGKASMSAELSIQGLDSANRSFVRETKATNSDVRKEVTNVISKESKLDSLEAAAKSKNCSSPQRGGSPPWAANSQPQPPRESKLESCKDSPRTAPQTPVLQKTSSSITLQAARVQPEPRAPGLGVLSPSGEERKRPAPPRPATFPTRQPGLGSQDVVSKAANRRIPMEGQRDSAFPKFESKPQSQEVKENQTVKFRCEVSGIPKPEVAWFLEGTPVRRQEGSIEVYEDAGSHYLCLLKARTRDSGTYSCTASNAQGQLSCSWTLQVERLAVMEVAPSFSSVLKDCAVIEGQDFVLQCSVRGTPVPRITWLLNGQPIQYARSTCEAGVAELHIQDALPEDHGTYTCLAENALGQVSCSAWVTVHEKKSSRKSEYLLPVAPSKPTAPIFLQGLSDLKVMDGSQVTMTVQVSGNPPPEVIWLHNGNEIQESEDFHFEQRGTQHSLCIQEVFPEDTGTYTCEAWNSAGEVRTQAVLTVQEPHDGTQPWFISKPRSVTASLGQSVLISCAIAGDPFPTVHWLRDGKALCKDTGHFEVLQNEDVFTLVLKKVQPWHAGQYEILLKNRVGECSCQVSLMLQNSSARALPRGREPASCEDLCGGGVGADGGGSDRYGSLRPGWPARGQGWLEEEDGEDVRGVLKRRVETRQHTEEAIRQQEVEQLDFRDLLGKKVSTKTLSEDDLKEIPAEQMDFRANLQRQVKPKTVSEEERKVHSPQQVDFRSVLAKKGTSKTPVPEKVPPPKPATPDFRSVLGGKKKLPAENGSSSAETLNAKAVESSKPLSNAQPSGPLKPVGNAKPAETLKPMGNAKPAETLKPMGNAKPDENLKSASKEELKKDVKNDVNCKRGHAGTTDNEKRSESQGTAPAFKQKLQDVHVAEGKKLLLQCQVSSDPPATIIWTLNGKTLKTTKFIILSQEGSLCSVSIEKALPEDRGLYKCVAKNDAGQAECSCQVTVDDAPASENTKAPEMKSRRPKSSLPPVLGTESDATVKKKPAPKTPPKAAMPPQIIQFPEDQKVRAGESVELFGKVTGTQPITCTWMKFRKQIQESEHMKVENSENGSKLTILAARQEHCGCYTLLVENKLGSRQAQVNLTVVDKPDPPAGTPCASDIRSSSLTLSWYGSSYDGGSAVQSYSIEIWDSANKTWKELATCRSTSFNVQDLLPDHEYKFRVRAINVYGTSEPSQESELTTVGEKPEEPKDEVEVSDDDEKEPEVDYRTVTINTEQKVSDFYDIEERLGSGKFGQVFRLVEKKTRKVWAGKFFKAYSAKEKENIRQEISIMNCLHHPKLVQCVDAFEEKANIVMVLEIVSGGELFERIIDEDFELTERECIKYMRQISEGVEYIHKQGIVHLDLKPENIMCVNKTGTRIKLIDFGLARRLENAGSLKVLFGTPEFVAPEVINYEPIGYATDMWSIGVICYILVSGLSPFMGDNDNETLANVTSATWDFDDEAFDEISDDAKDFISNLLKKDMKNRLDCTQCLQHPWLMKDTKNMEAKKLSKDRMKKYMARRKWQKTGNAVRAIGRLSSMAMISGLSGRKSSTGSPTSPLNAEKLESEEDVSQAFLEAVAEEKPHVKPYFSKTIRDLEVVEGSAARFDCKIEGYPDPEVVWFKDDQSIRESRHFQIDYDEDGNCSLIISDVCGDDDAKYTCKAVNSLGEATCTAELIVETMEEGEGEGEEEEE
T15 sequence (Q8TDX7 whole entry): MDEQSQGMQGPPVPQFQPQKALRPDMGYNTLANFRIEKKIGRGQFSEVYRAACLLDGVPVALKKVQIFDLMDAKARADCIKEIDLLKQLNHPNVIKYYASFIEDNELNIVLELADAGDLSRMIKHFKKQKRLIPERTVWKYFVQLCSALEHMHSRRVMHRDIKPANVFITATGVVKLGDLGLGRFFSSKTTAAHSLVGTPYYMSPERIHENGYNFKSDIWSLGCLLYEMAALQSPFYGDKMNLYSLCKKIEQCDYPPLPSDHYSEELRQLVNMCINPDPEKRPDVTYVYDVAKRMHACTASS
T3 sequence (Q15418 1-391 limits assumed): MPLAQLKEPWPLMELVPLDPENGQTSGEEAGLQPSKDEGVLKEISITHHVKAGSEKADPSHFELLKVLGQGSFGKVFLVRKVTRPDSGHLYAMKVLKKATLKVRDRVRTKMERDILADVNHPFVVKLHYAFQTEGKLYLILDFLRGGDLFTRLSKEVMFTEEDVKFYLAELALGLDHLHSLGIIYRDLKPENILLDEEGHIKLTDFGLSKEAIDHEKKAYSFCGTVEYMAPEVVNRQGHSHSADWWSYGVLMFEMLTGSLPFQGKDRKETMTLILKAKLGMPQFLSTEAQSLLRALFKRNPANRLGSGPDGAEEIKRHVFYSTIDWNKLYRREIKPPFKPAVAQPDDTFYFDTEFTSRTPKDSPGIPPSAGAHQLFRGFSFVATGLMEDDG

`Cc1cc(Nc2ccc(F)c(CC3(C(=O)N4CCC(F)(CN5CCN(c6ccc(N7CCC(=O)NC7=O)cn6)CC5)CC4)CCN(Cc4cccc(Cl)c4F)CC3)n2)n[nH]1` [SK5527] gave a remaining binding at 0.1 µM (MEK2; 100 nM) of 80%, a remaining binding at 1 µM (MEK2; 1000 nM) of 81% and a remaining binding at 0.1 µM (BMX; 100 nM) of 100%. For the same compound, the remaining binding at 1 µM (BMX; 1000 nM) was 73%, the remaining binding at 0.1 µM ([1]; 100 nM) was 100% and the remaining binding at 1 µM ([1]; 1000 nM) was 100%. The remaining binding at 0.1 µM (NEK3; 100 nM) was 88%, the remaining binding at 1 µM (NEK3; 1000 nM) was 61% and the remaining binding at 0.1 µM (LATS1; 100 nM) was 100%. For the same compound, the remaining binding at 1 µM (LATS1; 1000 nM) was 100%, the remaining binding at 0.1 µM (ROCK2; 100 nM) was 100% and the remaining binding at 1 µM (ROCK2; 1000 nM) was 45%. It also gave a remaining binding at 0.1 µM (IKK-epsilon; 100 nM) of 75%, a remaining binding at 1 µM (IKK-epsilon; 1000 nM) of 67% and a remaining binding at 0.1 µM (YANK1; 100 nM) of 100%. It also gave a remaining binding at 1 µM (YANK1; 1000 nM) of 77%, a remaining binding at 0.1 µM (EGFR(G719C); 100 nM) of 87% and a remaining binding at 1 µM (EGFR(G719C); 1000 nM) of 94%. For the same compound, the remaining binding at 0.1 µM (PRKX; 100 nM) was 79%, the remaining binding at 1 µM (PRKX; 1000 nM) was 96% and the remaining binding at 0.1 µM (FGFR3(G697C); 100 nM) was 75%. The remaining binding at 1 µM (FGFR3(G697C); 1000 nM) was 67%, the remaining binding at 0.1 µM (NEK10; 100 nM) was 100% and the remaining binding at 1 µM (NEK10; 1000 nM) was 100%. For the same compound, the “Percent Control” value (FLT3(ITD,D835V); 100 nM) was 79%, the “Percent Control” value (FLT3(ITD,D835V); 1000 nM) was 59% and the remaining binding at 0.1 µM (VPS34; 100 nM) was 92%. For the same compound, the remaining binding at 1 µM (VPS34; 1000 nM) was 39%, the remaining binding at 0.1 µM (MAP4K2; 100 nM) was 88% and the remaining binding at 1 µM (MAP4K2; 1000 nM) was 95%. For the same compound, the remaining binding at 0.1 µM (NEK7; 100 nM) was 74%, the remaining binding at 1 µM (NEK7; 1000 nM) was 73% and the remaining binding at 0.1 µM (AMPK-alpha2; 100 nM) was 93%. For the same compound, the remaining binding at 1 µM (AMPK-alpha2; 1000 nM) was 100%, the remaining binding at 0.1 µM (CSNK2A1; 100 nM) was 90% and the remaining binding at 1 µM (CSNK2A1; 1000 nM) was 69%. For the same compound, the remaining binding at 0.1 µM (PRKCQ; 100 nM) was 100%, the remaining binding at 1 µM (PRKCQ; 1000 nM) was 94% and the remaining binding at 0.1 µM (NEK6; 100 nM) was 96%. It also gave a remaining binding at 1 µM (NEK6; 1000 nM) of 54%, a remaining binding at 0.1 µM ([2]; 100 nM) of 85% and a remaining binding at 1 µM ([2]; 1000 nM) of 92%. It also gave a remaining binding at 0.1 µM (PRKCH; 100 nM) of 96%, a remaining binding at 1 µM (PRKCH; 1000 nM) of 100% and a remaining binding at 0.1 µM (MLCK; 100 nM) of 100%. For the same compound, the remaining binding at 1 µM (MLCK; 1000 nM) was 0%, the remaining binding at 0.1 µM (CSNK1G2; 100 nM) was 98% and the remaining binding at 1 µM (CSNK1G2; 1000 nM) was 93%. The remaining binding at 0.1 µM (PAK6; 100 nM) was 100%, the remaining binding at 1 µM (PAK6; 1000 nM) was 100% and the remaining binding at 0.1 µM ([3]; 100 nM) was 80%. It also gave a remaining binding at 1 µM ([3]; 1000 nM) of 68%, a remaining binding at 0.1 µM (CLK4; 100 nM) of 85% and a remaining binding at 1 µM (CLK4; 1000 nM) of 100%. For the same compound, the remaining binding at 0.1 µM (MAP4K4; 100 nM) was 86%, the remaining binding at 1 µM (MAP4K4; 1000 nM) was 73% and the remaining binding at 0.1 µM (ACVR1B; 100 nM) was 100%. The remaining binding at 1 µM (ACVR1B; 1000 nM) was 100%, the remaining binding at 0.1 µM (CSF1R; 100 nM) was 97% and the remaining binding at 1 µM (CSF1R; 1000 nM) was 90%. The remaining binding at 0.1 µM (CAMK1G; 100 nM) was 100%, the remaining binding at 1 µM (CAMK1G; 1000 nM) was 92% and the remaining binding at 0.1 µM (PRKG1; 100 nM) was 92%. For the same compound, the remaining binding at 1 µM (PRKG1; 1000 nM) was 100%, the remaining binding at 0.1 µM (MYLK; 100 nM) was 76% and the remaining binding at 1 µM (MYLK; 1000 nM) was 47%.
